Measured values from ChEMBL document CHEMBL5537108, “A comprehensive review on the global efforts on vaccines and repurposed drugs for combating COVID-19” (Eur J Med Chem, 2023).
Where a name gives a salt, the structure may show the parent alone.

How the values were obtained:
Format in all cases: functional, organism-based
SARS-CoV-2 [1] = test: Antiviral activity against SARS-CoV-2 NRC-03-nhCoV infected in african green monkey Vero E6 cells assessed as inhibition of virus-induced cytopathic effect measured after 72 hrs by crystal violet staining based assay; conditions: Severe acute respiratory syndrome coronavirus 2, NRC-03-nhCoV, Vero C1008, 72 h
SARS-CoV-2 [2] = test: Antiviral activity against SARS-CoV-2 infected in African green monkey Vero cells assessed as reduction in viral replication measured after 72 hrs by qRT-PCR analysis; conditions: Severe acute respiratory syndrome coronavirus 2, Vero
Ebolavirus [3] = test: Antiviral activity against Ebola virus infected in African green monkey Vero cells incubated for 3 days by immunofocus assay; conditions: Orthoebolavirus, 72 h
SARS-CoV-2 [4] = test: Antiviral activity against SARS-CoV-2 infected in African green monkey Vero cells assessed as reduction in virus-induced cytopathic effect incubated for 5 days by microscopic analysis; conditions: Severe acute respiratory syndrome coronavirus 2, Vero, 120 h
Ebolavirus [5] = test: Antiviral activity against EBOV infected in human Huh-7 cells assessed as reduction in viral replication; conditions: Orthoebolavirus
SARS-CoV-2 [6] = test: Antiviral activity against SARS-CoV-2 B.1.1.7 infected in human Calu-3 cells assessed as inhibition of viral infection measured after 48 hrs by Hoechst 33342 staining based analysis; conditions: Severe acute respiratory syndrome coronavirus 2, B.1.1.7, Calu-3, 48 h
[7] = system: Middle East respiratory syndrome-related coronavirus; test: Antiviral activity against MERS-CoV infected in african green monkey Vero E6; conditions: Vero C1008
[8] = system: Middle East respiratory syndrome-related coronavirus; test: Antiviral activity against MERS-CoV infected in human Calu-3 cells assessed as inhibition of viral growth by infection assay

Cc1nc(Nc2ncc(C(=O)Nc3c(C)cccc3Cl)s2)cc(N2CCN(CCO)CC2)n1 [DASATINIB ANHYDROUS] gave an EC50 (SARS-CoV-2 [1]) of 2.1 µM.
CC(C)c1nc(CN(C)C(=O)N[C@H](C(=O)N[C@@H](Cc2ccccc2)C[C@H](O)[C@H](Cc2ccccc2)NC(=O)OCc2cncs2)C(C)C)cs1 [RITONAVIR] gave an EC50 (SARS-CoV-2 [2]) of 8.63 µM.
In the case of CCC(CC)COC(=O)[C@H](C)N[P@](=O)(OC[C@H]1O[C@@](C#N)(c2ccc3c(N)ncnn23)[C@H](O)[C@@H]1O)Oc1ccccc1, the EC50 (Ebolavirus [3]) is reported as 0.77 µM, the EC50 (SARS-CoV-2 [4]) is reported as 0.01 µM and the EC50 (Ebolavirus [5]) is reported as 61.9 µM. For the same compound, the EC50 (SARS-CoV-2 [6]) was 67 µM.
Compound Cc1cccc(C)c1OCC(=O)N[C@@H](Cc1ccccc1)[C@@H](O)C[C@H](Cc1ccccc1)NC(=O)[C@H](C(C)C)N1CCCNC1=O [LOPINAVIR] has an EC50 (SARS-CoV-2 [2]) of 5.73 µM.
In the case of CN1CCN(CCOc2cc(OC3CCOCC3)c3c(Nc4c(Cl)ccc5c4OCO5)ncnc3c2)CC1 [SARACATINIB], the EC50 [7] is reported as 10 µM.
CN(C)C(=O)COC(=O)Cc1ccc(OC(=O)c2ccc(NC(=N)N)cc2)cc1 [CAMOSTAT] gave an EC50 [8] of 0.005 µM.
In the case of N=C(N)Nc1ccc(C(=O)Oc2ccc3cc(C(=N)N)ccc3c2)cc1 [NAFAMOSTAT MESYLATE], the EC50 [8] is reported as 0.087 µM.
